Patent publication US20260256716A1, “COMPOSITIONS AND METHODS OF USE THEREOF” (Board of Supervisors of Louisiana State University and …, priority 2023, published 2026)
Entries after “also recorded” stand apart in the source; their conditions may differ.

How the values were obtained:
[1] = system: phosphorylated myosin light chain; test: Western blot of phosphorylated myosin light chain (MLC) in ARPE-19 cells under hyperglycemic conditions; assay type: cell-based, human
Experimental: A Hallmark of Age-Associated Ocular and Neurodegenerative Disorders is Cytoskeletal Alteration and Induction of CONTRACTILE Stress Fiber Formation. Expression and activation via phosphorylation of Myosin Light Chain (MLC), is a biomarker of disease development. ARPE-19 cells and ARPE-19 cells specifying 5-HT2AR knockouts were plated in nutrient rich media (DMEM; 7% FCS) overnight. Cells were fixed, permeabilized, and stained phalloidin and α-phosphorylated-Myosin light chain. Cytoskeletal elements were then visualized by fluorescent microscopy to visualize actin fiber cytoskeletal structures (phalloidin, red) and contractile phosphorylated myosin light chain (green) via fluorescent microscopy. […] ARPE-19 cells were cultured under hyperglycemic conditions in nutrient rich media (DMEM High glucose; 7% FCS) overnight either in the absence or presence of 5-HT2A receptor agonists R-DOI and 2CiBu at 10 nm or 100 nM concentrations. The relative expression of the activated disease biomarker contractile phosphorylated myosin light chain was determined using specific antibodies and western blot analysis. 5-HT2A agonists. […] Therefore, 5-HT2A agonism at low concentrations have the potential to prevent and reverse deleterious cytoskeletal events that can be induced under hyperglycemic conditions, such as in diabetics.
This can be consistent with 2C-iBu being able to regulate IOP and that 5HT2A agonists prevented edema formation and disruption of corneal architecture in a model of herpetic keratitis.

[2] = system: AMP kinase; test: AMP kinase activation in treated cells; assay type: cell-based; details: low nM concentrations
[3] = system: ARPE-19 cells; test: ATP luciferase assay in ARPE-19 cells; assay type: cell-based, human
[4] = system: ARPE cells; test: Blue light induced mitochondrial fragmentation in ARPE cells (mitotracker green); assay type: cell-based, human; details: 100 nM; 48 hours; hyperglycemic conditions; blue light 400 nm
Experimental: ARPE cells grown under hyperglycemic conditions were plated and mock treated or treated with R-DOI or 2C-iBu at 100 nM. 48 hours post treatment, mitochondria in live cells were visualized by staining mitochondria with mitotracker green (green). Once stained, live ARPE cells were exposed to focused blue light at 400 nm and the ability of drugs to protect against blue light damage-induced mitochondrial fragmentation was assessed.

[5] = system: A549 cells; test: Cell viability after cumene peroxide oxidative stress (Hoechst / propidium iodide); assay type: cell-based
Experimental: A549 cells were treated with the indicated concentrations of R-DOI (panel A) or 2C-iBu (panel B) and subsequently exposed to cumene peroxide to oxidatively stress cells. Cell viability was visualized by staining with Hoescht (Blue) to mark total cells (live plus dead) and propidium iodide (red) to mark dead cells.

[6] = system: ARPE-19 cells; test: ARPE-19 proliferation (DAPI cell number, fold change in growth); assay type: cell-based, human; details: for cellular replication / proliferation: physiologically relevant serotonin levels, 72 h
Experimental: Specific 5-HT2A Receptor Activation via Model Phenethylamines, like R-DOI. […] ARPE-19 cells were plated in nutrient rich media, DMEM, containing 7% dialyzed FCS and then starved in DMEM media containing 0.5% dialyzed FCS. Cells were then changed to 7% dialyzed FCS DMEM media containing physiolocial relevant levels of serotonin at varying concentrations and grown for 72-hours. Cell numbers were determined through DNA staining with DAPI and fold change in growth was determined from baseline readings at 24-hours. To assess if agonists of the 5HT2A receptor could enhance cell health and proliferation specifically through the 5-HT2A receptor, the model 5-HT2A receptor agonist, R-DOI was added at either 0.1 nM or 1 nM. […] Also, included is a summary of physiological serotonin and 5-HT2A receptor agonist/antagonist outcomes on cellular proliferation. This increase in proliferation promotes the formation of a compact RPE-monolayer which is important for maintaining a healthy blood-retinal barrier and can occur with low dose administration of 5-HT2A receptor agonists.
ARPE-19 cells were plated in nutrient rich media, DMEM, containing 7% dialyzed FCS and then starved in DMEM media containing 0.5% dialyzed FCS. Cells were then changed to 7% dialyzed FCS DMEM media containing physiological relevant levels of serotonin at varying concentrations and grown for 72-hours. Cell numbers were determined through DNA staining with DAPI and fold change in growth was determined from baseline readings at 24-hours. To assess if serotonin enhances cell health and proliferation specifically through the 5-HT2A receptor, the 5-HT2A receptor antagonist, M100,907 at 10 nM was included during serotonin induction.

[7] = system: ARPE-19 cells; test: SA-β-Gal cellular senescence in ARPE-19 cells in nutrient rich media (DMEM); assay type: cell-based, human; details: 10 nM in starvation media overnight, then DMEM 7% FCS 72 hours
Experimental: ARPE-19 cells in nutrient rich media (DMEM; 7% FCS) were seeded overnight prior to being replaced with starvation media (DMEM; 0.5% FCS) containing 10 nM R-DOI or 10 nM M100,907. After overnight incubation in starvation media with drug, cells were swapped to DMEM 7% FCS media for 72-hours. After the 72-hour incubation, cells were fixed and stained for SA-β-Gal for 6-hours. Cells nuclei were then stained with DAPI for total-cell enumeration. SA-β-Gal positive cells, and total cells per frame, were quantified by microscopy.

[8] = system: ARPE-19 cells; test: Hyperglycemia induced SA-β-Gal cellular senescence in ARPE-19 cells (HPLM); assay type: cell-based, human
Experimental: Consistent with Retinal Deterioration by Glucose-Induced Cellular Senescence in the Diabetic Population, Hyperglycemic conditions induce increased disease promoting Cellular Senescence that is abrogated by low nM concentrations of the Representative 5-HT2A Receptor Agonist, R-DOI Returning to Base-line Homeostatic Levels. ARPE-19 cells in physiologically relevant media (HPLM; 7% FCS) were seeded overnight prior to being replaced with starvation media (HPLM 0.5% FCS) containing 10 nM R-DOI. After overnight incubation in starvation media, cells were swapped to media containing diabetic blood glucose levels (HPLM 7% FCS containing 5 mM, 10 mM, 20 mM, or 30 mM glucose) for 72-hours. After the 72-hour incubation, cells were fixed and stained for SA-β-Gal for 6-hours. Cells nuclei were then stained with DAPI for total-cell enumeration. SA-β-Gal positive cells, and total cells per frame, were quantified by microscopy. Pathological/diabetic glucose concentrations induce cellular senescence. 5-HT2A receptor agonism alleviates glucose-induced senescence at diabetic blood glucose levels. […]
Effects of specific phenethylamine 5-HT2A receptor agonists on reduction of Hyperglycemia induced Disease Promoting Cellular Senescence: Inhibition of Cell Senescence and Disease Processes are Drug and Dose Dependent. […] SA-3-Gal positive cells, and total cells per frame, were quantified by microscopy. For each 5-HT2A agonist assessed, the % of senescent cells is expressed relative to the hyperglycemic control. […]
Inhibition of Cell Senescence and Disease Processes are Drug and Dose Dependent. […] SA-β-Gal positive cells, and total cells per frame, were quantified by microscopy. For each 5-HT2A agonist assessed, the % of senescent cells is expressed relative to the hyperglycemic control. […]

[9] = system: ARPE-19 cells; test: FACS forward scatter cell size of ARPE-19 cells; assay type: cell-based, human; details: treated overnight, then 4 days in normal media
Description: Upon initial seeding of potential 5HT2A KD cells there was a readily apparent alteration of normal ARPE cell morphology. Cells appeared flattened, extended, highly attached and enlarged. Each cell line isolate maintained this enlarged and flattened cell morphology as shown to the right and quantified below. […] This markedly altered morphology is present in cells that have begun to undergo changes related to aging, including evolving a senescent or pre-senescent phenotype. Therefore, FACS analysis of 5HT2A KD cells was performed comparing the cell size of Forward Scatter to ARPE-19 cells, treated overnight with Etoposide, an inhibitor of topoisomerase, and a known inducer of cell senescence, and then cultured for 4 days in normal media in the absence of etoposide. […] Further an increase in particles of “cell degranulation” sizing was also observed in all conditions compared to ARPE-19 WT controls.

Which results are given for `COc1cc(CC(C)C)c(OC)cc1CCN` [2C-iBu, 2,5-Dimethoxy-4-isobutylphenethylamine]?
hyperglycemia induced phosphorylated MLC levels ([1]; ARPE-19, DMEM High glucose 7% FCS overnight, 10 nM, western blot): suppressed hyperglycemia induced phosphorylated MLC levels; phosphorylation of MLC ([1]; WT ARPE-19 in media with hyperglycemic glucose (17.5 mM), low dose, not high doses): inhibited; AMP kinase activation [2]: activation of AMP kinase; ATP levels relative to Mock treated ARPE-19 cells ([3]; 10 fold dilutions 100 nM to 0.1 nM): Increase Mitochondrial Function And ATP Production; production of ATP ([3]; ARPE WT cells, 24 h after administration): enhanced production of ATP; blue light induced mitochondrial fragmentation/damage [4]: Inhibit Blue Light and Oxidative Stress Induced Mitochondrial Fragmentation/Damage; oxidative stress-induced cell death [5]: protected cells from oxidative stress-induced cell death

How did the serotonin-mediated enhanced replication ([6]; antagonist at 10 nM during serotonin induction) turn out when `COc1cccc([C@H](O)C2CCN(CCc3ccc(F)cc3)CC2)c1OC` [M100,907, reference compound] was run?
The serotonin-mediated enhanced replication was “abrogated serotonin-mediated enhanced replication”.

What about the “cellular senescence (SA-β-Gal positive cells)” value [7] of the same compound?
Its value is “Increases Proportions of Cellular Senescence”.

With `COc1cc(C(F)(F)F)c(OC)cc1C[C@@H](C)N` [R-DOTFM] as the compound, how does the “concentration at which disease is exacerbated” value [8] read?
The value was no less than 10 nM.

What about the “hyperglycemia induced cellular senescence relative to hyperglycemic control” value ([8]; 1 uM to 0.1 nM, HPLM 30 mM glucose, 72 hours) of the same compound?
Its value is “enhances rather than inhibits Aging-Associated Disease Processes and Cellular Senescence”.

`NCCc1c[nH]c2ccc(O)cc12` [Serotonin, 5-hydroxytryptamine] was tested. Which “cellular replication / proliferation” value [6] did it give?
Its value is “Enhances Cellular Health and Replication”.

What about the “cellular replication / proliferation” value ([6]; listed as 5-HT) of the same compound?
The value was “increase cellular replication; also recorded: increase ARPE-19 Proliferation”.

What about the “cellular replication / proliferation” value ([6]; listed as serotonin) of the same compound?
Its value is “enhance cellular replication patterns; also recorded: enhance replication of cells”.

For `COc1cc([C@@H]2c3cc4c(cc3[C@@H](O[C@@H]3O[C@@H]5CO[C@@H](C)O[C@H]5[C@H](O)[C@H]3O)[C@H]3COC(=O)[C@H]23)OCO4)cc(OC)c1O` [etoposide], which “cell size (forward scatter)” value [9] is on record?
Its value is “increased cell size”.
